This passage reports IC50 results from ChEMBL document CHEMBL1150867, “New sesquiterpene hydroquinones from a Taiwanese marine sponge, Hippospongia metachromia” (J Nat Prod, 2001).

The test system of one assay is COLO 205. Put plainly: Cytotoxicity against human COLO205 cells by methylene blue dye assay.
The nature of assay [1]: Cytotoxicity against human KB16 cells by methylene blue dye assay.

≈ marks a conversion by molar mass, not a printed value.

Broadly, the IC50 is the midpoint of a concentration-inhibition curve. As for `C=C1[C@H](C)CCC[C@]1(C)CC[C@@]1(C)C=Cc2c(OC(C)=O)c(OC)cc(OC(C)=O)c2O1` [HIPPOCHROMIN B DIACETATE], the IC50 (with COLO 205; in assay [1]) was > 10 µg/mL in each case.
Take `C=C1[C@H](C)CCC[C@]1(C)CC[C@@]1(C)C=Cc2c(OC(C)=O)c(OC(C)=O)cc(OC)c2O1` [HIPPOCHROMIN A DIACETATE]: the values for the IC50 (in the assay with COLO 205; in assay [1]) were 0.22 µg/mL and 3.06 µg/mL, respectively.
On to `C=C1[C@H](C)CCC[C@]1(C)CC/C(C)=C/CC1=C(O)C(=O)C=C(OC)C1=O` [METACHROMIN A], for which the 50% inhibitory concentration (IC50) was determined as 0.1 µg/mL (≈ 0.279 µM) in the assay on COLO 205 and 1.8 µg/mL (≈ 5.02 µM) in assay [1].
For `C=C1[C@H](C)CCC[C@]1(C)CC[C@@]1(C)C=CC2=C(O1)C(=O)C=C(OC)C2=O` [METACHROMIN E], in that order: > 10 µg/mL and > 10 µg/mL.
Turning to `C=C1[C@H](C)CCC[C@]1(C)CC[C@@]1(C)C=Cc2c(OC(C)=O)c(OC)cc(OC)c2O1` [METACHROMIN B MONO METHYLATE], the IC50 turned out to be 0.53 µg/mL (≈ 1.28 µM) with COLO 205 and 1.32 µg/mL (≈ 3.18 µM) in assay [1].
For the molecule `C=C1[C@H](C)CCC[C@]1(C)CC[C@@]1(C)C=Cc2c(O)c(OC)cc(OC)c2O1` [METACHROMIN B], the IC50 came to 0.26 µg/mL (≈ 0.698 µM) in the assay on COLO 205 and 0.68 µg/mL (≈ 1.83 µM) in assay [1].
Turning to `C=C1[C@H](C)CCC[C@]1(C)CC/C(C)=C/CC1=C(OC)C(=O)C=C(OC)C1=O` [METACHROMIN A MONOMETHYLATE], the IC50 (with COLO 205; in assay [1]) was > 10 µg/mL in each case.
